Data published in patent US6534508B2, “Methods and compositions for treating infection using optically pure (S)-lomefloxacin” (priority 1991, dated 2003).
In brackets after ≈: the same amount, converted by molar mass. Where two headings read alike, the source gives them in different places.

Assays:
M. marinum ATCC 927 = assay: Broth microdilution MIC, M. marinum ATCC 927; type: cell-based
M. chelonei C315 = assay: Broth microdilution MIC, M. chelonei C315; type: cell-based; conditions: for MIC50: as worded in conclusions, single strain
M. tuberculosis [1] = conditions: 79 strains susceptible to conventional drug therapy; cited from earlier work
M. tuberculosis [2] = assay: Broth microdilution MIC, M. tuberculosis isolates; type: cell-based; conditions: 12 strains, 14 days incubation, 7H9 broth
[3] = human, in vivo, cited from earlier work
M. kansasii = assay: Broth microdilution MIC, M. kansasii isolates; type: cell-based; conditions: 10 strains, 7 days incubation, 7H9 broth
M. avium = assay: Broth microdilution MIC, M. avium isolates; type: cell-based; conditions: 11 strains, 7 days incubation, 7H9 broth
β-adrenergic = conditions: L-form vs D-enantiomer; cited from earlier work
[4] = 1 strain, 7 days incubation at 30° C., 7H9 broth
[5] = as worded in conclusions, single strain
[6] = 1 strain, 4 days incubation, 7H9 broth

SMILES	Susceptibility, Range (M. tuberculosis [2]) [µg/mL]	Susceptibility, MIC90 (M. kansasii) [µg/mL]	Susceptibility, Range (M. kansasii) [µg/mL]	Susceptibility, Range (M. avium) [µg/mL]	Susceptibility, MIC (M. marinum ATCC 927; [4]) [µg/mL]	MIC (M. marinum ATCC 927; [5]) [µg/mL]	Susceptibility, MIC (M. chelonei C315; [6]) [µg/mL]	MIC50 (M. chelonei C315) [µg/mL]	Susceptibility, MIC50 (M. tuberculosis [2]) [µg/mL]	Susceptibility, MIC50 (M. kansasii) [µg/mL]	Susceptibility, MIC50 (M. avium) [µg/mL]	Susceptibility, MIC90 (M. avium) [µg/mL]	also measured
CCn1cc(C(=O)O)c(=O)c2cc(F)c(N3CCNC(C)C3)c(F)c21 (racemic) [LM, 1-ethyl-6,8-difluoro-1,4-dihydro-7-(3-methyl-lpiperazinyl)-4-oxo-3-quinolinecarboxylic acid]	0.5 to 2	2.0	1 to 2	4 to 16	–	–	–	–	–	–	–	–	MIC (M. marinum ATCC 927; Mycobacterium marinum, ATCC927, 168 h, 1 strain, 7 days incubation at 30° C., 7H9 broth, read-out: Susceptibility, MIC): 4 µg/mL (≈ 11.4 µM); MIC50 (M. marinum ATCC 927; Mycobacterium marinum, ATCC927, as worded in conclusions, single strain): 4 µg/mL (≈ 11.4 µM); MIC (M. chelonei C315; Mycobacteroides abscessus, C315, 96 h, 1 strain, 4 days incubation, 7H9 broth, read-out: Susceptibility, MIC): 4 µg/mL (≈ 11.4 µM); MIC50 (M. chelonei C315; Mycobacteroides abscessus, C315, read-out: MIC50): 4 µg/mL (≈ 11.4 µM); MIC50 (M. tuberculosis [1]): 0.96 µg/mL (≈ 2.73 µM); MIC90 (M. tuberculosis [1]): 1.02 µg/mL (≈ 2.9 µM); MIC50 (M. tuberculosis [2]; Mycobacterium tuberculosis, 336 h, read-out: Susceptibility, MIC50): 1 µg/mL (≈ 2.85 µM); MIC90 (M. tuberculosis [2]; Mycobacterium tuberculosis, 336 h, read-out: Susceptibility, MIC90): 2 µg/mL (≈ 5.69 µM); average elimination half-life ([3]; po): approximately 8 hours; prolongation of the half-life [3]: up to 24 hours; MIC50 (M. kansasii; Mycobacterium kansasii, 168 h, read-out: Susceptibility, MIC50): 1 µg/mL (≈ 2.85 µM); MIC90 (M. kansasii; Mycobacterium kansasii, 168 h, read-out: Susceptibility, MIC90): 2 µg/mL (≈ 5.69 µM); MIC50 (M. avium; Mycobacterium avium, 168 h, read-out: Susceptibility, MIC50): 8 µg/mL (≈ 22.8 µM); MIC90 (M. avium; Mycobacterium avium, 168 h, read-out: Susceptibility, MIC90): 16 µg/mL (≈ 45.5 µM)
CC(C)NC[C@H](O)COc1cccc2ccccc12 [L-form of propranolol, propranolol]	–	–	–	–	–	–	–	–	–	–	–	–	potency relative to the D-enantiomer (β-adrenergic): 100 times
CCn1cc(C(=O)O)c(=O)c2cc(F)c(N3CCN[C@H](C)C3)c(F)c21 [R-LM, (R)-lomefloxacin]	1 to 4	4	2 to 4	4 to 32	4	4.0 (≈ 11.4 µM)	4	4.0 (≈ 11.4 µM)	2	2	16	32	Susceptibility, MIC90 (M. tuberculosis [2]): 4 µg/mL; Susceptibility, MIC90 (M. kansasii; listed as (R)-LM): 4.0 µg/mL
CCn1cc(C(=O)O)c(=O)c2cc(F)c(N3CCN[C@@H](C)C3)c(F)c21 [S-LM, (S)-lomefloxacin]	0.25 to 1	2	1 to 2	2 to 16	2	2.0 (≈ 5.69 µM)	2	2.0 (≈ 5.69 µM)	0.5	1	8	16	Susceptibility, MIC90 (M. kansasii; listed as (S)-LM): 2.0 µg/mL
